What follows are compounds tested against T1, N-arachidonyl glycine receptor (Homo sapiens) (UniProt Q14330) (assay: Antagonist activity against human GPR18 expressed in CHO cells assessed as reduction in delta9-THC-induced beta-arrestin recruitment at 10 uM by beta-galactosidase enzyme fragment complementation method).
T1 sequence (whole entry): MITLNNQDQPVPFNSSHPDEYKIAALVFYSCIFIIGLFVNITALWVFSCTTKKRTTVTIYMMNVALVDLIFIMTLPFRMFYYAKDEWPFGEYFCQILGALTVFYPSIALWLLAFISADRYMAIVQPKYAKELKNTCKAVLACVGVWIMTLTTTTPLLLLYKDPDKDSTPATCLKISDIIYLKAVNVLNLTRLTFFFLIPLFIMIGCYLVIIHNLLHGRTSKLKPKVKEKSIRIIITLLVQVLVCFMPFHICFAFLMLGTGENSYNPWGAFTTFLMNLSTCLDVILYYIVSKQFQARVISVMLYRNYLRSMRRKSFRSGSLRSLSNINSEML
Assay type: cell-based

Row | SMILES | inhibition [%]
1 | O=C1/C(=C/C=C/c2ccccc2)N=C2SCCCN12 | 0
2 | O=C1/C(=C/c2ccc([N+](=O)[O-])cc2)N=C2SCCCN12 | 20
3 | CC(C)c1ccc(/C=C2\N=C3SCCCN3C2=O)cc1 | 4
4 | O=C1N=C2SCCN2C1(c1ccccc1)c1ccccc1 | 0
5 | O=C1N2CCSC2=NC1(c1ccccc1)c1ccccc1 | 12
6 | O=C1/C(=C/c2ccc(-c3ccccc3)cc2)N=C2SCCCCN12 | 37

These compounds were tested against Cannabinoid receptor 1 (Rattus norvegicus, UniProt P20272) (assay: Displacement of [3H]CP55,940 from CB1 receptor in rat brain cortical membranes).
Sequence of Cannabinoid receptor 1 (Rattus norvegicus, UniProt P20272) (P20272 whole entry): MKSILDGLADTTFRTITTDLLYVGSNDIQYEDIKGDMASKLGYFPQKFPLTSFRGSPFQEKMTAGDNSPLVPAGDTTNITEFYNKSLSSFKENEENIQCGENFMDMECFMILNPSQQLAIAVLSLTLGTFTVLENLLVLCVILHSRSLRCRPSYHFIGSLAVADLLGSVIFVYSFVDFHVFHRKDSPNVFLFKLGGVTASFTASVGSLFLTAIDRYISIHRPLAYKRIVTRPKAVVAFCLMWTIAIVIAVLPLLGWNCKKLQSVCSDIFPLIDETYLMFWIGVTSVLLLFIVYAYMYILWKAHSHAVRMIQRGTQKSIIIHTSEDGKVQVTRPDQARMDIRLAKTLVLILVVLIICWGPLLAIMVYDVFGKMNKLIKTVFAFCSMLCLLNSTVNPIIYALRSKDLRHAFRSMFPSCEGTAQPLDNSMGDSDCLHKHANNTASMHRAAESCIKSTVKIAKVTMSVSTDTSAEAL
Assay type: cell membranes

Row | SMILES | Ki [µM]
7 | O=C1/C(=C/C=C/c2ccccc2)N=C2SCCCN12 | > 10
8 | O=C1/C(=C/c2ccc([N+](=O)[O-])cc2)N=C2SCCCN12 | > 10
9 | CC(C)c1ccc(/C=C2\N=C3SCCCN3C2=O)cc1 | > 10
10 | O=C1N=C2SCCN2C1(c1ccccc1)c1ccccc1 | > 10
11 | O=C1N2CCSC2=NC1(c1ccccc1)c1ccccc1 | > 10
12 | O=C1/C(=C/c2ccc(-c3ccccc3)cc2)N=C2SCCCCN12 | > 10

The compounds below were run against T2, G-protein coupled receptor 55 (Homo sapiens, UniProt Q9Y2T6) (assay: Antagonist activity against human GPR55 expressed in CHO cells assessed as reduction in LPI-induced beta-arrestin recruitment at 10 uM by beta-galactosidase enzyme fragment complementation method).
T2 sequence (Q9Y2T6 whole entry, the tested form may be a part): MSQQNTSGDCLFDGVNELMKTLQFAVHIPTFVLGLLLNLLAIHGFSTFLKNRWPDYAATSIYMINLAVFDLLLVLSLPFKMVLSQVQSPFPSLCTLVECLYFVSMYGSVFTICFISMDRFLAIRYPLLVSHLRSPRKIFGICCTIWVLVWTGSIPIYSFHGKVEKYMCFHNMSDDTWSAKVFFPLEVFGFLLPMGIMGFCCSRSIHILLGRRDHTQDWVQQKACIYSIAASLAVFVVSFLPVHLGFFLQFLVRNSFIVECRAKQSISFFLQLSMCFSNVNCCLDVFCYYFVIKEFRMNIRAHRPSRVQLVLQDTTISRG
Assay type: cell-based

Row | SMILES | inhibition [%]
13 | O=C1/C(=C/C=C/c2ccccc2)N=C2SCCCN12 | 27
14 | O=C1/C(=C/c2ccc([N+](=O)[O-])cc2)N=C2SCCCN12 | 12
15 | CC(C)c1ccc(/C=C2\N=C3SCCCN3C2=O)cc1 | 38
16 | O=C1N=C2SCCN2C1(c1ccccc1)c1ccccc1 | 31
17 | O=C1N2CCSC2=NC1(c1ccccc1)c1ccccc1 | 39
18 | O=C1/C(=C/c2ccc(-c3ccccc3)cc2)N=C2SCCCCN12 | 0

The compounds below were run against T3, Cannabinoid receptor 2 (Homo sapiens, UniProt P34972) (assay: Displacement of [3H]CP55,940 from human recombinant CB2 receptor expressed in HEK293 cells at 10 uM).
T3 sequence (P34972 whole entry): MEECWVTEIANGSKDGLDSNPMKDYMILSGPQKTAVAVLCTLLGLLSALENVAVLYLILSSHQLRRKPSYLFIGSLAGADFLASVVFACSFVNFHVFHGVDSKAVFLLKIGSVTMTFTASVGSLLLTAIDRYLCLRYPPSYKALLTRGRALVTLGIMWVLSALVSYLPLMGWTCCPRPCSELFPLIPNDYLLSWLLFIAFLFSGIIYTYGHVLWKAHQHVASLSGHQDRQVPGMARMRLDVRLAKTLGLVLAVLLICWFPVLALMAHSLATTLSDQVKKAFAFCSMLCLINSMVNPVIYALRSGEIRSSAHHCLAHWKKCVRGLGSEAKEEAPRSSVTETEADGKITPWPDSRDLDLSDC
Assay type: cell-based

Row | SMILES | inhibition [%]
19 | O=C1/C(=C/C=C/c2ccccc2)N=C2SCCCN12 | 37
20 | O=C1/C(=C/c2ccc([N+](=O)[O-])cc2)N=C2SCCCN12 | 20
21 | CC(C)c1ccc(/C=C2\N=C3SCCCN3C2=O)cc1 | 17
22 | O=C1N=C2SCCN2C1(c1ccccc1)c1ccccc1 | 6
23 | O=C1N2CCSC2=NC1(c1ccccc1)c1ccccc1 | 3

What follows are compounds tested against T3, Cannabinoid receptor 2 (assay: Displacement of [3H]CP55,940 from human recombinant CB2 receptor expressed in HEK293 cells).
Assay type: cell-based

Row | SMILES | Ki [µM]
24 | O=C1/C(=C/C=C/c2ccccc2)N=C2SCCCN12 | > 10
25 | O=C1/C(=C/c2ccc([N+](=O)[O-])cc2)N=C2SCCCN12 | > 10
26 | CC(C)c1ccc(/C=C2\N=C3SCCCN3C2=O)cc1 | > 10
27 | O=C1N=C2SCCN2C1(c1ccccc1)c1ccccc1 | > 10
28 | O=C1N2CCSC2=NC1(c1ccccc1)c1ccccc1 | > 10
29 | O=C1/C(=C/c2ccc(-c3ccccc3)cc2)N=C2SCCCCN12 | 5.43

Each compound was assayed against T2, G-protein coupled receptor 55 (assay: Antagonist activity against human GPR55 expressed in CHO cells assessed as reduction in LPI-induced beta-arrestin recruitment by beta-galactosidase enzyme fragment complementation method).
Assay type: cell-based

Row | SMILES | IC50 [µM]
30 | O=C1/C(=C/C=C/c2ccccc2)N=C2SCCCN12 | > 10
31 | O=C1/C(=C/c2ccc([N+](=O)[O-])cc2)N=C2SCCCN12 | > 10
32 | CC(C)c1ccc(/C=C2\N=C3SCCCN3C2=O)cc1 | > 10
33 | O=C1N=C2SCCN2C1(c1ccccc1)c1ccccc1 | > 10
34 | O=C1N2CCSC2=NC1(c1ccccc1)c1ccccc1 | > 10
35 | O=C1/C(=C/c2ccc(-c3ccccc3)cc2)N=C2SCCCCN12 | > 10

Each compound was assayed against T4, Cannabinoid receptor 1 (Homo sapiens, UniProt P21554) (assay: Displacement of [3H]CP55,940 from human recombinant CB1 receptor expressed in CHO-K1 cells at 10 uM).
T4 sequence (P21554 whole entry): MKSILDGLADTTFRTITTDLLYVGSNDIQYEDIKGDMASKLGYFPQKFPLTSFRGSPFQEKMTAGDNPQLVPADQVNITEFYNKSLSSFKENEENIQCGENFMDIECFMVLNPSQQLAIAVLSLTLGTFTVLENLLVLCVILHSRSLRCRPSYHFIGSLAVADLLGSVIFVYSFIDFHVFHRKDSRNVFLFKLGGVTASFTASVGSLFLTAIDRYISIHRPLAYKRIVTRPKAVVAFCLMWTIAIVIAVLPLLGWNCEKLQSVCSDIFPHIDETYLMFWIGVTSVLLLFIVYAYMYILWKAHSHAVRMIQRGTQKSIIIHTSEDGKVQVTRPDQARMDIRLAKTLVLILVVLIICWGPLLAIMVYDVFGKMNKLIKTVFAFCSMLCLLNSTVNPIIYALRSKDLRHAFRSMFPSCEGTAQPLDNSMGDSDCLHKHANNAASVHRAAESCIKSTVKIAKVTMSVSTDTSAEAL
Assay type: cell-based

Row | SMILES | inhibition [%]
36 | O=C1/C(=C/C=C/c2ccccc2)N=C2SCCCN12 | 16
37 | O=C1/C(=C/c2ccc([N+](=O)[O-])cc2)N=C2SCCCN12 | 0
38 | CC(C)c1ccc(/C=C2\N=C3SCCCN3C2=O)cc1 | 12
39 | O=C1N=C2SCCN2C1(c1ccccc1)c1ccccc1 | 30
40 | O=C1/C(=C/c2ccc(-c3ccccc3)cc2)N=C2SCCCCN12 | -5

These compounds were tested against T2, G-protein coupled receptor 55 (assay: Agonist activity at human GPR55 expressed in CHO cells assessed as induction of LPI-induced beta-arrestin recruitment by beta-galactosidase enzyme fragment complementation method relative to LPI).
Assay type: cell-based
Parameters: concentration or dose not given beside the values

Row | SMILES | Activity [%]
41 | O=C1/C(=C/C=C/c2ccccc2)N=C2SCCCN12 | 29
42 | O=C1/C(=C/c2ccc([N+](=O)[O-])cc2)N=C2SCCCN12 | 39
43 | CC(C)c1ccc(/C=C2\N=C3SCCCN3C2=O)cc1 | 13
44 | O=C1N=C2SCCN2C1(c1ccccc1)c1ccccc1 | 50
45 | O=C1N2CCSC2=NC1(c1ccccc1)c1ccccc1 | 50
46 | O=C1/C(=C/c2ccc(-c3ccccc3)cc2)N=C2SCCCCN12 | 30

These compounds were tested against T5, N-arachidonyl glycine receptor (Homo sapiens, UniProt Q14330) (assay: Antagonist activity against human GPR18 expressed in CHO cells assessed as reduction in delta9-THC-induced beta-arrestin recruitment by beta-galactosidase enzyme fragment complementation method).
T5 sequence (Q14330 whole entry): T1 sequence (whole entry)
Assay type: cell-based

Row | SMILES | IC50 [µM]
47 | O=C1/C(=C/C=C/c2ccccc2)N=C2SCCCN12 | > 10
48 | O=C1/C(=C/c2ccc([N+](=O)[O-])cc2)N=C2SCCCN12 | > 10
49 | CC(C)c1ccc(/C=C2\N=C3SCCCN3C2=O)cc1 | > 10
50 | O=C1N=C2SCCN2C1(c1ccccc1)c1ccccc1 | > 10
51 | O=C1N2CCSC2=NC1(c1ccccc1)c1ccccc1 | > 10
52 | O=C1/C(=C/c2ccc(-c3ccccc3)cc2)N=C2SCCCCN12 | > 10

The compounds below were run against T4, Cannabinoid receptor 1 (assay: Displacement of [3H]CP55,940 from human recombinant CB1 receptor expressed in CHO-K1 cells).
Assay type: cell-based

Row | SMILES | Ki [µM]
53 | O=C1/C(=C/C=C/c2ccccc2)N=C2SCCCN12 | > 10
54 | O=C1/C(=C/c2ccc([N+](=O)[O-])cc2)N=C2SCCCN12 | > 10
55 | CC(C)c1ccc(/C=C2\N=C3SCCCN3C2=O)cc1 | > 10
56 | O=C1N=C2SCCN2C1(c1ccccc1)c1ccccc1 | > 10
57 | O=C1N2CCSC2=NC1(c1ccccc1)c1ccccc1 | 21.1
58 | O=C1/C(=C/c2ccc(-c3ccccc3)cc2)N=C2SCCCCN12 | > 10

The compounds below were run against T1, N-arachidonyl glycine receptor (Homo sapiens) (assay: Agonist activity at human GPR18 expressed in CHO cells assessed as induction of beta-arrestin recruitment by beta-galactosidase enzyme fragment complementation method relative to delta9-THC).
Assay type: cell-based
Parameters: concentration or dose not given beside the values

Row | SMILES | Activity [%]
59 | O=C1/C(=C/C=C/c2ccccc2)N=C2SCCCN12 | 7
60 | O=C1/C(=C/c2ccc([N+](=O)[O-])cc2)N=C2SCCCN12 | 0
61 | CC(C)c1ccc(/C=C2\N=C3SCCCN3C2=O)cc1 | 0
62 | O=C1N=C2SCCN2C1(c1ccccc1)c1ccccc1 | 21
63 | O=C1N2CCSC2=NC1(c1ccccc1)c1ccccc1 | 12
64 | O=C1/C(=C/c2ccc(-c3ccccc3)cc2)N=C2SCCCCN12 | 6

These compounds were tested against Cannabinoid receptor 1 (Rattus norvegicus) (UniProt P20272) (assay: Displacement of [3H]CP55,940 from CB1 receptor in rat brain cortical membranes at 10 uM).
Sequence of Cannabinoid receptor 1 (Rattus norvegicus) (P20272 whole entry): as the sequence (P20272 whole entry) above
Assay type: cell membranes

Row | SMILES | inhibition [%]
65 | O=C1/C(=C/C=C/c2ccccc2)N=C2SCCCN12 | 18
66 | O=C1/C(=C/c2ccc([N+](=O)[O-])cc2)N=C2SCCCN12 | 23
67 | CC(C)c1ccc(/C=C2\N=C3SCCCN3C2=O)cc1 | 6
68 | O=C1N=C2SCCN2C1(c1ccccc1)c1ccccc1 | 13
69 | O=C1N2CCSC2=NC1(c1ccccc1)c1ccccc1 | 15
70 | O=C1/C(=C/c2ccc(-c3ccccc3)cc2)N=C2SCCCCN12 | 0
